Measurements: ChEMBL document CHEMBL1201862, “PubChem BioAssay data set” (2004)
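Protocol summary: plate cells (96-well), add compound at 5 concentrations, incubate 48 h, interpolate endpoints linearly. GI50: concentration for 50% inhibition of growth.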 Active and inactive are the calls of the source. Rule as the data show it: active = GI50 up to about 1.1 µM and inactive = higher.

Legend:
Assay in all cases: DTP human tumour cell line panel, 48 h
M14 = system: M14
HOP-92 = system: HOP-92
MCF7 = system: MCF7
SR = system: SR
HCC 2998 = system: HCC 2998
HOP-62 = system: HOP-62
Malme-3M = system: Malme-3M
T47D = system: T47D
A498 = system: A498
KM12 = system: KM12
EKVX = system: EKVX
MOLT-4 = system: MOLT-4
PC-3 = system: PC-3
MDA-MB-435 = system: MDA-MB-435
IGROV-1 = system: IGROV-1
786-0 = system: 786-0
HL-60 = system: HL-60
DU-145 = system: DU-145
SNB-75 = system: SNB-75
SK-MEL-28 = system: SK-MEL-28

Measured: GI50

COc1ccc2oc(=O)cc(C)c2c1
active: T47D 0.0733 µM
inactive: M14 > 100 µM | HOP-92 > 100 µM | MCF7 > 100 µM | SR > 100 µM | HCC 2998 > 100 µM | HOP-62 > 100 µM | Malme-3M > 100 µM | A498 > 100 µM | KM12 > 100 µM | EKVX 21 µM | MOLT-4 > 100 µM | PC-3 > 100 µM | MDA-MB-435 > 100 µM | IGROV-1 > 100 µM | 786-0 > 100 µM | HL-60 > 100 µM | DU-145 > 100 µM | SNB-75 88.5 µM | SK-MEL-28 > 100 µM

CC(C)(C)OC(=O)C(C1NC(C(=O)O)C(C)(C)S1)N1C(=O)c2ccccc2C1=O (stereo not given)
inactive: M14 > 100 µM | HOP-92 > 100 µM | MCF7 > 100 µM | SR > 100 µM | HCC 2998 > 100 µM | HOP-62 > 100 µM | Malme-3M > 100 µM | T47D > 100 µM | A498 > 100 µM | KM12 > 100 µM | EKVX > 100 µM | MOLT-4 > 100 µM | PC-3 > 100 µM | MDA-MB-435 > 100 µM | IGROV-1 > 100 µM | 786-0 > 100 µM | HL-60 > 100 µM | DU-145 > 100 µM | SNB-75 > 100 µM | SK-MEL-28 > 100 µM

CCCCCCCC1(N=[N+]=[N-])C(=O)c2ccccc2N(C)C1=O (stereo not given)
inactive: M14 > 100 µM | HOP-92 22.5 µM | MCF7 > 100 µM | SR > 100 µM | HCC 2998 > 100 µM | HOP-62 > 100 µM | Malme-3M > 100 µM | T47D 68.9 µM | A498 > 100 µM | KM12 > 100 µM | EKVX > 100 µM | MOLT-4 > 100 µM | PC-3 > 100 µM | MDA-MB-435 89.9 µM | IGROV-1 > 100 µM | 786-0 > 100 µM | HL-60 54.1 µM | DU-145 > 100 µM | SNB-75 > 100 µM | SK-MEL-28 > 100 µM

CN(Cc1c2ccccc2cc2ccccc12)S(=O)(=O)c1ccc(-c2c3nc(c(-c4ccc(S(=O)(=O)N(C)Cc5c6ccccc6cc6ccccc56)cc4)c4ccc([nH]4)c(-c4ccc(S(=O)(=O)N(C)Cc5c6ccccc6cc6ccccc56)cc4)c4nc(c(-c5ccc(S(=O)(=O)N(C)Cc6c7ccccc7cc7ccccc67)cc5)c5ccc2[nH]5)C=C4)C=C3)cc1
inactive: M14 > 100 µM | HOP-92 29.2 µM | MCF7 > 100 µM | SR > 100 µM | HCC 2998 > 100 µM | HOP-62 30.3 µM | Malme-3M > 100 µM | T47D > 100 µM | A498 > 100 µM | KM12 > 100 µM | EKVX > 100 µM | MOLT-4 > 100 µM | PC-3 > 100 µM | MDA-MB-435 > 100 µM | IGROV-1 > 100 µM | 786-0 53.1 µM | HL-60 > 100 µM | DU-145 > 100 µM | SNB-75 24.4 µM | SK-MEL-28 > 100 µM

CC[C@@H]1CC[C@@H]2[C@H](CC[C@]3(C)[C@@H](OS(=O)(=O)c4ccc(C)cc4)CC[C@@H]23)[C@H]1CO
inactive: M14 87.3 µM | HOP-92 > 100 µM | MCF7 43.3 µM | SR > 100 µM | HCC 2998 > 100 µM | HOP-62 > 100 µM | Malme-3M > 100 µM | T47D 29.2 µM | A498 > 100 µM | KM12 > 100 µM | EKVX 12.2 µM | MOLT-4 > 100 µM | PC-3 82 µM | MDA-MB-435 > 100 µM | IGROV-1 > 100 µM | 786-0 > 100 µM | HL-60 17.8 µM | DU-145 > 100 µM | SNB-75 91 µM | SK-MEL-28 > 100 µM

CCOC(=O)NC(Nc1ccc(F)c(F)c1)(C(=O)OCC)C(F)(F)F (stereo not given)
inactive: HOP-92 > 100 µM | MCF7 > 100 µM | SR > 100 µM | HCC 2998 > 100 µM | HOP-62 > 100 µM | Malme-3M > 100 µM | T47D 18.2 µM | A498 > 100 µM | KM12 3.23 µM | EKVX > 100 µM | MOLT-4 > 100 µM | PC-3 > 80.5 µM | MDA-MB-435 5.69 µM | IGROV-1 > 28.1 µM | 786-0 > 100 µM | HL-60 20.4 µM | DU-145 > 62.8 µM | SNB-75 98.9 µM | SK-MEL-28 > 100 µM
active: M14 0.826 µM

COc1ccccc1N1C(=O)/C(=C\c2cccc(Oc3ccccc3)c2)SC1c1ccccc1 (stereo not given)
active: HL-60 < 0.01 µM
inactive: M14 24.4 µM | HOP-92 21.1 µM | MCF7 21.5 µM | SR 19.6 µM | HCC 2998 25.7 µM | HOP-62 73.3 µM | Malme-3M 37.6 µM | T47D 27.2 µM | A498 > 100 µM | KM12 42.6 µM | EKVX 15.9 µM | MOLT-4 31 µM | PC-3 58.5 µM | MDA-MB-435 28.6 µM | IGROV-1 21.1 µM | 786-0 39.2 µM | DU-145 57.5 µM | SNB-75 39.6 µM | SK-MEL-28 46.9 µM

CCOC(=O)CCC(NC(=O)c1ccc(OCc2nc3ccccc3n3cccc23)cc1)C(=O)OCC (stereo not given)
inactive: M14 63.2 µM | HOP-92 45.6 µM | MCF7 39.2 µM | SR 9.62 µM | HCC 2998 > 100 µM | HOP-62 38 µM | Malme-3M > 100 µM | T47D 20 µM | A498 > 100 µM | KM12 4.83 µM | EKVX > 100 µM | MOLT-4 1.65 µM | PC-3 26.6 µM | MDA-MB-435 80.4 µM | IGROV-1 31.6 µM | 786-0 74.3 µM | HL-60 11.5 µM | DU-145 74.1 µM | SNB-75 29.2 µM | SK-MEL-28 > 100 µM

COC(=O)c1c2c(c3[nH]c4ccccc4c3c1C(=O)OC)C(=O)C1=C(C2=O)C2(Cl)C(Cl)C(Cl)C1(Cl)C2(Cl)Cl (stereo not given)
inactive: M14 1.46 µM | HOP-92 1.77 µM | HCC 2998 2.91 µM | HOP-62 3.76 µM | Malme-3M 1.82 µM | T47D 1.35 µM | KM12 2.54 µM | EKVX 3.92 µM | MOLT-4 1.17 µM | PC-3 1.86 µM | IGROV-1 2.69 µM | 786-0 2.68 µM | HL-60 2.29 µM | DU-145 2.07 µM | SNB-75 2.39 µM | SK-MEL-28 1.56 µM
active: MCF7 0.705 µM | SR 0.489 µM | A498 0.432 µM | MDA-MB-435 1.07 µM

Clc1cc(Cl)cc(/C=N/C23CC4CC(CC(C4)C2)C3)c1
inactive: M14 > 10 µM | HOP-92 > 10 µM | MCF7 7.59 µM | SR > 10 µM | HCC 2998 > 10 µM | HOP-62 > 10 µM | Malme-3M > 10 µM | T47D > 10 µM | A498 > 10 µM | KM12 > 10 µM | EKVX > 10 µM | MOLT-4 > 10 µM | PC-3 > 10 µM | MDA-MB-435 > 10 µM | IGROV-1 > 10 µM | 786-0 > 10 µM | HL-60 > 10 µM | DU-145 > 10 µM | SNB-75 > 10 µM | SK-MEL-28 > 10 µM

Oc1cccc2c1[nH]c1c(C3=C[C@@]4(O)CC/C=C\CCCCN5CC[C@@H]3[C@]3(CC6/C=C\CCCCN6[C@H]34)C5)nccc12 (stereo not given in full)
active: M14 0.966 µM | HOP-92 0.226 µM | MCF7 0.7 µM | SR 0.578 µM | HCC 2998 0.384 µM | HOP-62 0.764 µM | T47D 0.804 µM | MOLT-4 0.64 µM | PC-3 0.738 µM | MDA-MB-435 0.798 µM | IGROV-1 1.02 µM | 786-0 0.659 µM | HL-60 0.667 µM | SNB-75 0.946 µM
inactive: Malme-3M 1.6 µM | A498 2.24 µM | KM12 1.55 µM | EKVX 1.23 µM | DU-145 1.15 µM | SK-MEL-28 1.66 µM

CCCCCCCCCCCCCCCCOP(=O)([O-])OCC[N+](C)(C)C [MILTEFOSINE]
inactive: M14 16.4 µM | HOP-92 2.68 µM | MCF7 24.9 µM | SR 6.21 µM | HCC 2998 5.38 µM | HOP-62 14.9 µM | Malme-3M 21.8 µM | T47D 18.2 µM | A498 12.9 µM | KM12 2.74 µM | EKVX 27 µM | MOLT-4 8.73 µM | PC-3 1.56 µM | MDA-MB-435 17.9 µM | IGROV-1 2.77 µM | 786-0 9.55 µM | HL-60 4.74 µM | DU-145 19.4 µM | SNB-75 18.7 µM | SK-MEL-28 27.9 µM
